Results as given in patent US12611459B2, “System and method for unbinding of plasma protein-bound active agents using an ultrasound system” (The Brigham and Women's Hospital, Inc., priority 2019, dated 2026).

Key:
[1] = system: plasma proteins, primarily albumin; settings: cited from earlier work
[2] = rat, in vivo
Experimental: In this example the effects of focused ultrasound (FUS) on unbinding phenytoin from albumin was evaluated in an animal model (rat). The enhancement of phenytoin was assessed using immunohistochemistry (IHC) followed by intraperitoneal injection of phenytoin and subsequent sonication of the unilateral hemisphere. All IHC was performed on an automated staining platform. Hematoxylin and eosin (H&E) staining was also performed to assess for tissue hemorrhage. The same sonication parameters and device were used as in the first example described above except the sonication was delivered for 35 minutes.
FUS was delivered to the brain areas in the right hemisphere at a fundamental frequency of 250 kHz in a pulsed manner (55 ms TBD, 4 Hz PRF, at 5 W/cm^2 Isppa) for 35 minutes. FIG. 4 illustrates example mosaic H&E microscope images 402, example, mosaic phenytoin-stained IHC images 404 and example inverted grayscale images 406 of the phenytoin IHC in accordance with an embodiment. […] In the IHC images 404, the dotted ovals 408 indicate the approximate location of the FUS sonication focus (in the right hemisphere of the brain).

[3] = molecular target: bovine serum albumin (BSA) (Bos taurus, UniProt P02769); test: equilibrium dialysis of albumin-phenytoin solution under focused ultrasound (FUS), HPLC of dialysate; format: in vitro ADME; settings: for phenytoin level in dialysate: FUS 250 kHz, 55 ms TBD, 4 Hz PRF, 5 W/cm2 Isppa, 55 min; for elevation of unbound phenytoin level at the focus: p<0.05
Experimental: The ability of FUS to unbind phenytoin from albumin was assessed in this example by an equilibrium dialysis (ED), whereby the cocktail of albumin-phenytoin was sonicated, and unbound phenytoin was allowed to pass through the membrane to be collected and analyzed. As a part of in vitro testing, a visible dye, Toluidine Blue O, was dissolved in an aqueous solution of albumin and the spatial distribution of the degree of its unbinding from the albumin through the application of FUS was qualitatively evaluated via gel infiltration using agar gel block.
In this example, an in vitro experimental chamber was constructed using a 3D printer (clear resin) to measure the effects of FUS on albumin-phenytoin binding. The chamber includes four slots to place four microdialysis cassettes (7 kMW cut-off pore size; 4×4×0.8 cm; H×L×W) whereby one is placed perpendicular to the sonication focus (‘FF’), and three others are placed away from the focus (‘F01’ through ‘F03’). A FUS transducer having 13 mm focal length (away from the exit plane) and operating at a fundamental frequency of 250 kHz was used to sonicate the middle of the dialysis window (‘FF’). The output pressure wave from the transducer was calibrated for the input signal generator and the acoustic map perpendicular to the sonication axis was mapped using known methods. An identical setup was prepared separately and was not sonicated to provide a control.
In this example, bovine serum albumin (BSA) was dissolved in a phosphate-buffered saline (PBS) (pH7.4) at a concentration of 46 mg/mL concentration, and 200 mL of resulting solution was poured into the chamber. The experiment was conducted at a room temperature (20-21° C.) and the solution temperature was equilibrated at the ambient temperature. The solution was not degassed and kept the ambient gas content (O2 6.1 ppm; measured using dissolved oxygen meter). The wall of the chamber was padded with rubber inserts to absorb the incident acoustic waves to prevent reflection or reverberation within the chamber.
In this example, phenytoin was dissolved (15 μg/mL) in PBS having bovine serum albumin (BSA) concentration of 45 mg/mL to emulate the clinical serum concentration. The temperature of the solution was monitored during the sonication to examine the potential effect from the temperature of the solution on the bound phenytoin. The dialysis cassettes, after hydration according to known methods, were filled with PBS (0.5 ML) and were placed into the bath. Subsequently, sonication was given for 55 min at 250 kHz in pulsed manner (55 ms TBD, 4 Hz PRF, at 5 W/cm2 Isppa Spatial-Peak Pulse-Average Intensity, i.e. 22% duty cycle). The mechanical index (MI) of the focus was 0.8 (corresponding to peak negative pressure of 391 kPa). The temperature of the solution was monitored. […] The obtained samples underwent High Performance Liquid Chromatography (HPLC) for the measurement of phenytoin concentration after the calibration of the known absolute level of the phenytoin. The HPLC system consisted of an autosampler, a dual piston pump, and an electrochemical detector coupled to a guard cell and an analytical cell.

Sequence of bovine serum albumin (BSA) (P02769 25-607): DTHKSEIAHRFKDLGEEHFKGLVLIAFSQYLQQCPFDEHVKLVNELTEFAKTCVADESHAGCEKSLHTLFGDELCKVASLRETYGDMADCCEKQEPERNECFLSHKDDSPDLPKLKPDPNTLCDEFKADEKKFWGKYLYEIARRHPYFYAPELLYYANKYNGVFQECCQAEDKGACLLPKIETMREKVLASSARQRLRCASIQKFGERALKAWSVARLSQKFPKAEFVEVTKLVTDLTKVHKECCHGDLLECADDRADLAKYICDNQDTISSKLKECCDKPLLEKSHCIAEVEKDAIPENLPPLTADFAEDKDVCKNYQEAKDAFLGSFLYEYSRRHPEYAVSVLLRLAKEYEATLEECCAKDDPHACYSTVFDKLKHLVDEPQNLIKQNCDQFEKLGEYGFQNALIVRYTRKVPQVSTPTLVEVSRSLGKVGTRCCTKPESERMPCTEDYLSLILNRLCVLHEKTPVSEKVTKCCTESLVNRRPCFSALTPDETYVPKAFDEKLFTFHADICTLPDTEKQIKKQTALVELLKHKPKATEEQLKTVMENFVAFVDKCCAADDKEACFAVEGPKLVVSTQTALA

## O=C1NC(=O)C(c2ccccc2)(c2ccccc2)N1 [phenytoin]
[1]; at clinical dose
  fraction available in an unbound state: ~12%
[1]; primarily to albumin
  binding level to plasma proteins: approximately 90%
[2]
  tissue injury or hemorrhage (H&E): no evidence of tissue injury or hemorrhage
[3]; at the acoustic focus (FF), n=6
  phenytoin level in dialysate: 1.38 ± 0.2 µg/mL
[3]; compared to outside of focus
  elevation of unbound phenytoin level at the focus: ~21.4%
[3]; compared to the control
  elevation of unbound phenytoin level at the focus: approximately 27.7%
[3]; control chamber (CTRL), not sonicated, n=12
  averaged phenytoin level in dialysate: 1.52 ± 0.16 µg/mL
[3]; outside of focus (FO), n=12
  phenytoin level in dialysate: 1.13 ± 0.08 µg/mL
[3]; p>0.1
  difference in phenytoin level between control condition and outside of focus: no significant difference
